Experimental data reported in US20250135006A1, “AMPHIPHILIC TLR7/8 ADJUVANTS AND USES THEREOF” (Pfizer Inc., priority 2023, published 2025).

Columns and labels:
S. pneumoniae serotype 3 = format: in vivo, female Swiss-Webster mice; conditions: mouse
RSV A strain (M37) = assay: In vivo immunogenicity with RSV antigen, RSV microneutralization assay; parameters: species or system female BALB/c mice; conditions: 0.5 μg bivalent RSV antigen alone or mixed with 2 nmol adjuvant, intramuscular days 0 and 21, sera day 35
Procedure: In two independent in vivo immunogenicity studies, female BALB/c mice were immunized intramuscularly twice three weeks apart (days 0 and 21) with 0.5 μg of RSV antigen alone or mixed with 2 nmol of Example 1 adjuvant (Compound 1). Sera were collected at day 35 to determine RSV neutralization antibody titers (nAb). The RSV antigen tested was bivalent comprising a RSV F Protein of Subtype A comprising the sequence of SEQ ID NO: 1 and SEQ ID NO: 2, as well as a RSV F Protein of Subtype B comprising the sequence of SEQ ID NO: 3 and SEQ ID NO: 4.
50% nAb responses against RSV A strain (M37) were measured by an RSV microneutralization assay at 2 weeks post dose 2.

[1] = molecular target: T1, human toll like receptor 8 (hTLR8) (Homo sapiens, UniProt Q9NR97); assay: hTLR8 in-vitro functional assay (HEK-Blue hTLR8 SEAP reporter); format: cell-based; conditions: HEK-Blue hTLR8 cells, overnight incubation
T1 construct: host or cells: HEK293 (HEK-Blue hTLR8)
T1 sequence (Q9NR97 27-1041): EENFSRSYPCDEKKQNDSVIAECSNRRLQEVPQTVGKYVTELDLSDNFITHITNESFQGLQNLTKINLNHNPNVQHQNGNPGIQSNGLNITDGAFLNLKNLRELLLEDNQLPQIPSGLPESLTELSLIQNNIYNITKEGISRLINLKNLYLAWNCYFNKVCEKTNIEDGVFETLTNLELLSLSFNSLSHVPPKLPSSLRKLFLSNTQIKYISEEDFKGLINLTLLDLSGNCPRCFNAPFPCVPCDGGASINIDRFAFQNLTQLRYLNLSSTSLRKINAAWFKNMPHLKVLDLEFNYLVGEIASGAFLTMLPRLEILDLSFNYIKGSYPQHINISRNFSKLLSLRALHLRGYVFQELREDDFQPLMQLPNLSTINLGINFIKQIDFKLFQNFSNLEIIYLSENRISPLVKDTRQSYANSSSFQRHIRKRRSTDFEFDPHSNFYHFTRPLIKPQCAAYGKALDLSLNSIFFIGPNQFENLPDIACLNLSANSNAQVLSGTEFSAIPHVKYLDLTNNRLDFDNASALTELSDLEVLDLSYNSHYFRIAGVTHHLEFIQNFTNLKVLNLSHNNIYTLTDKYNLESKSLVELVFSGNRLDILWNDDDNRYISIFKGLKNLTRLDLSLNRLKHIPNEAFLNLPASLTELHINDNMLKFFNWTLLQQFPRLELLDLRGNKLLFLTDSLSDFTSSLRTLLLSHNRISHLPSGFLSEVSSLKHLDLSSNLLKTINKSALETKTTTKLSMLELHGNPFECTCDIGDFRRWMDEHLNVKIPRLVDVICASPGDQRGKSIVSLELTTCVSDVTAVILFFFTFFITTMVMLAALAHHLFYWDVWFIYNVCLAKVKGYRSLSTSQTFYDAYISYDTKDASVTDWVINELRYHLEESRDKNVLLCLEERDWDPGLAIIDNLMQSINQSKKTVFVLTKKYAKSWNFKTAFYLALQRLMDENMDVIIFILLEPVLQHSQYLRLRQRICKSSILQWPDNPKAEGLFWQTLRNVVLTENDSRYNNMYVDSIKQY

[2] = molecular target: T2, human toll like receptor 7 (hTLR7) (Homo sapiens, UniProt Q9NYK1); assay: hTLR7 in-vitro functional assay (HEK-Blue hTLR7 SEAP reporter); format: cell-based; conditions: HEK-Blue hTLR7 cells, overnight incubation
T2 construct: host or cells: HEK293 (HEK-Blue hTLR7)
T2 sequence (Q9NYK1 27-1049): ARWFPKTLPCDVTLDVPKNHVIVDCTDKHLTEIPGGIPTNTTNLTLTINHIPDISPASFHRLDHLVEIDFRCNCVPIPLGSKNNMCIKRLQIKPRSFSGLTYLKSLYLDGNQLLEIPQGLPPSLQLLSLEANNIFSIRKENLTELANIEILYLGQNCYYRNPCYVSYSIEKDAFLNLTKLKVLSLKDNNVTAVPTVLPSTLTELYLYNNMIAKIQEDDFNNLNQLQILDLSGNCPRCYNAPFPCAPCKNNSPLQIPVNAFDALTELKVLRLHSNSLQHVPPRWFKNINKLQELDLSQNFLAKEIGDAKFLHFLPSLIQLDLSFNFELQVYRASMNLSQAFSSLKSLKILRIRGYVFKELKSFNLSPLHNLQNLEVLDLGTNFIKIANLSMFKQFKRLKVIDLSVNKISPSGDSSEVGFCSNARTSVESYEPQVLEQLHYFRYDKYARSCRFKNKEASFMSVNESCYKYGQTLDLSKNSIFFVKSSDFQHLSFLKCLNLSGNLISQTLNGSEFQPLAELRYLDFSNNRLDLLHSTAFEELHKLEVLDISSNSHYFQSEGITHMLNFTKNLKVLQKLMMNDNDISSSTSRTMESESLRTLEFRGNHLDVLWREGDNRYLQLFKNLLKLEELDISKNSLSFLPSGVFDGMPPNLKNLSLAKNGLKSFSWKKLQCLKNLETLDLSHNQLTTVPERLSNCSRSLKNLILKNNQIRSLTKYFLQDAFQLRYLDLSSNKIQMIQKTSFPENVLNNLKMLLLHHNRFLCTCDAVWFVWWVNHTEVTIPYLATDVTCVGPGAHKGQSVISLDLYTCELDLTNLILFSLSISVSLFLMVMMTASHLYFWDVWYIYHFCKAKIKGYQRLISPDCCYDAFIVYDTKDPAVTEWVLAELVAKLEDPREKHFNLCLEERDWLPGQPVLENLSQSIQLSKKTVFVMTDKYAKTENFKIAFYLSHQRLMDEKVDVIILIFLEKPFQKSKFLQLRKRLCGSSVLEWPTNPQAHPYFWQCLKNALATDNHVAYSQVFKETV

## CCCCc1nc2c(N)nc3cc(CCCN4CCN(C(=O)CCOCCOCCOCCOCCOCCOCCOCCOCCOCCOCCOCCOCCOCCOCCOCCOCCOCCOCCOCCOCCOCCOCCOCCOCCNC(=O)CCOCCOCCOCCOCCNC(=O)O[C@H]5CC[C@@]6(C)C(=CC[C@H]7[C@@H]8CC[C@H]([C@H](C)CCCC(C)C)[C@@]8(C)CC[C@@H]76)C5)CC4)ccc3c2n1CC(C)(CO)CO [Compound 1, (3beta)-cholest-5-en-3-yl {91-[4-(3-{4-amino-2-butyl-1-[3-hydroxy-2-(hydroxymethyl)-2-methylpropyl]-1H-imidazo[4,5-c]quinolin-7-yl}propyl)piperazin-1-yl]-15,91-dioxo-3,6,9,12,19,22,25,28,31,34,37,40,43,46,49,52,55,58,61,64,67,70,73,76,79,82,85,88-octacosaoxa-16-azahennonacont-1-yl}carbamate]
S. pneumoniae serotype 3; 0.1 μg S. pneumoniae serotype 3-CRM197 antigen with adjuvant (2 nmol; AlPO4 100 μg), IM weeks 0 and 3, sera week 5
  OPA geometric mean titers (GMT): 833
S. pneumoniae serotype 3; S. pneumoniae serotype 3 antigen, versus aluminum phosphate and free TLR 7/8 agonist
  OPA geometric mean titers compared with reference adjuvants: higher average OPA geometric mean titers than aluminum phosphate, as well as the free TLR 7/8 agonist molecule
RSV A strain (M37); Study 1
  50% neutralizing antibody titers (nAb) to RSV, GMT: 7502
RSV A strain (M37); Study 2
  50% neutralizing antibody titers (nAb) to RSV, GMT: 5362
[1]
  EC50: 1360 nM
[2]
  EC50: 122 nM
